Assay results published in US20080200372A1, “Glycosaminoglycan Peptides Derived From Connective Tissues And Use Thereof In The Prevention Of Arthritis And Other Degenerative Medical Conditions” (Institute of Nutraceutical Research Pty Ltd., priority 2004, published 2008).
“Also recorded” adds a separate entry of the source.

What was measured:
[1] = test system: rat collagen induced arthritis (CIA) model; test: Rat type II collagen induced arthritis (CIA) model, toleragenic protocol (7 days oral pre-administration); type: in vivo; conditions: for activity as toleragens in the rat CIA model: comparative study with CaP, FIG. 8
Procedure: In another example of the present invention, the tolerogenic protocol of evaluation of the pharmaceutical of the invention comprises administering the pharmaceutical composition to the animals prior to inducing arthritis by injection of the arthritogen. The pharmaceutical composition is administered for a period of time suitable to tolerize the animal. In one example the pharmaceutical composition is administered for 1 to 21 days prior to administration of the arthritogen. In one preferred example the pharmaceutical composition is administered for 1, 7, 10, 15 or 20 days prior to administration of the arthritogen. According to the toleragenic protocol for studying the activity of the pharmaceutical of the present invention, it is preferred that administration of the pharmaceutical composition ceases at the time that the arthritogen is administered.
Female Wistar rats (160-180 gm) were inoculated with 250 μg of the arthritogen, bovine tracheal collagen type-II dissolved in dilute acetic acid (0.01M) and applied as 6 divided injections into their tail base on day 0. The body weight of animals, together with their tail and paw swelling, were determined every 48 h, the latter parameters being determined using callipers and results expressed in millimetres (mm). Arthritis development was also assessed from day 11 onwards using a macroscopic scoring scale whereby rear paw, fore paw, and tail swelling were scored on a scale 0-4+. An overall arthritis score (0-4+) was also determined on the basis of overall inflammation and other signs of disease activity, e.g. piloerection, diminished mobility, poor grooming etc as described previously [Creamer M. et al. Collagen-induced arthritis in rats. J Immunology, 149:1045-1053, 1992]. […]

[2] = test system: rat collagen induced arthritis (CIA) model; test: Rat type II collagen induced arthritis (CIA) model, prophylactic protocol (15 days oral administration); type: in vivo; conditions: 200 mg/kg oral, 15 days administration, measured on day 15 (FIG. 8, FIG. 14)
Procedure: According to the prophylactic protocol of evaluation, the pharmaceutical composition of the present invention is administered to the animals from the time the animals are injected with arthritogen and for a number of days thereafter. In one example the pharmaceutical composition is administered to the animal for between 1 and 15 days after administration of the arthritogen. In alternate examples of the invention the pharmaceutical composition is administered for example for 7, 10, 15 or 20 days after administration of the arthritogen. The scope of the present invention extends to the administration of the pharmaceutical composition for an appropriate period of time after administration of the arthritogen that is suitable to effect prophylaxis to prevent the onset of symptoms of a harmful immune response to the arthritogen. […] The body weight of animals, together with their tail and paw swelling, were determined every 48 h, the latter parameters being determined using callipers and results expressed in millimetres (mm). Arthritis development was also assessed from day 11 onwards using a macroscopic scoring scale whereby rear paw, fore paw, and tail swelling were scored on a scale 0-4+. […]

[3] = test system: haemorrhagic stomach lesions produced by ibuprofen in rats with CIA; test: Gastroprotective activity in the rat CIA model against haemorrhagic stomach lesions produced by ibuprofen; type: in vivo
Procedure: FIG. 18 provides a table (Table 1) of the results for testing gastroprotective activity of Calcium Peptacan in the Rat CIA Arthritis Model against haemorrhagic stomach lesions produced by oral administration of the non-steroidal anti-inflammatory drug, Ibufrofen (50 mg/kg) on day 20.
As discussed earlier the chronic use of NSAIDs by OA and RA patients is frequently associated with serious side effects in the gastrointestinal tract particularly with respect the induction of gastric bleeding. This effect was confirmed in an animal model by administering 50 mg/kg of the NSAID, ibuprofen, to rats in which CIA had been ongoing for 20 days [see FIG. 18—Table 1].

citrated human plasma = test: In vitro anticoagulant activity, activated partial thromboplastin time (aPTT); type: biochemical
Procedure: Pharmaceutical quality chondroitin sulfate were obtained from Bioiberica, Barcelona, Spain (ChS#1) and Sigma Chemical Co St Louis, Mo., USA (ChS#2). Calcium peptacan (CaP), and GAG-peptide (GAG-P), prepared as described herein, were evaluated for their anticoagulant activities using a commercial aPTT reagent (Actin FSL activated PTT reagent, Dade-Behring Margurg GmbH, Marburg, Germany) and a standard human plasma: (Ci-Trol Coagulation Control level 2, Dade-Behring Margurg GmbH, Marburg, Germany) according to the protocol supplied by the manufacturer. Stock solutions of the test preparations were dissolved in 0.025M calcium chloride and serially diluted in this buffer to correspond to the concentrations of 0-1.25 mg/mL. The aPTT times were determined by the addition of these solutions to a mixture of the Actin FSL reagent and control plasma held at 37° C. in cuvettes of a fibrin-timer (Dade-Behring Margurg GmbH, Marburg, Germany). This instrument quantitated the time in seconds for clot formation. All samples were assayed in duplicate and the mean values plotted against concentration using a semi-log scale.

[4] = test system: type II collagen (CII) arthritis (CIA) in mice; conditions: cited from earlier work

## Cl.N[C@H]1C(O)O[C@H](CO)[C@@H](O)[C@@H]1O (stereo partly drawn) [GmHCl, Glucosamine Hydrochloride]
[1]
  activity as toleragens in the rat CIA model: inactive as toleragens
[2]
  prophylactic effects on arthritis development (rear paw swelling, front paw inflammation, arthritis scores): CaP was the only preparation that demonstrated anti-arthritic activity

## N[C@H]1C(O)O[C@H](CO)[C@@H](O)[C@@H]1O.O=S(=O)(O)O (stereo partly drawn) [GmSO4, Glucosamine Sulfate]
[1]
  activity as toleragens in the rat CIA model: inactive as toleragens
[2]
  prophylactic effects on arthritis development (rear paw swelling, front paw inflammation, arthritis scores): CaP was the only preparation that demonstrated anti-arthritic activity

## O=C(O)CC([S-])C(=O)O.[Au+] (stereo not drawn) [aurothiomalate]
[3]; ibuprofen 50 mg/kg on day 20 of CIA, dose of test substance not given
  gastro protective effectiveness: only marginally effective

## CC(C)Cc1ccc(C(C)C(=O)O)cc1 (stereo not drawn) [ibuprofen]
[3]; 50 mg/kg to rats in which CIA had been ongoing for 20 days
  induction of gastric bleeding: confirmed

## chondroitin sulfate [ChS #1]
Citrated human plasma; citrated human plasma, 0-1.25 mg/mL (FIG. 17)
  anticoagulant effect (aPTT): strongest anticoagulant effect

## chondroitin sulfate [ChS]
[1]; 20 mg/kg oral, 7 days pre-administration, measured on day 15 (FIG. 7, FIG. 9)
  toleragenic effects on arthritis development (rear paw swelling, front paw inflammation, arthritis scores): inactive as a toleragen; also recorded: no activity
Citrated human plasma; aPTT (FIG. 17)
  concentration range over which anti-coagulant activity was exhibited: 0.4 to 1.2 mg/mL
[4]; at any dose (100, 300, 1000 mg/kg), mice
  delayed-type hypersensitivity (DTH) reaction: no effect
[4]; only at the highest dose, 1000 mg/kg oral, mice
  severity of the disease (hind paw oedema, synovitis, destruction of the articular cartilage): significantly reduced
[4]; oral doses of 100, 300 and 1000 mg/kg for 14 days prior to inducing CIA in mice
  incidence of arthritis: failed to prevent the incidence of arthritis
